Assay results: patent US9359405B2, “Antagonists of the interleukin-1 receptor” (Phlogo ApS, priority 2011, dated 2016)
No end group written: not given here.

Assays:
[1] = test system: NF-κB activated by IL1β (IL1RI signaling), HEK-Blue IL1β cells; test: IL1RI signaling assay, HEK-Blue IL1β reporter cells (NF-κB/SEAP); assay type: cell-based; details: IL1β 1.2 μM
Description: (§1) IL1RI signaling assay: Commercially available Blue™ Cytokine Reporter Cell technology from InvivoGen (Denmark distributor: Sigma-Aldrich Denmark) was used. It is represented by an expanding family of engineered cell lines designed to provide a simple, rapid, and reliable method of monitoring the activation of signaling pathways induced by key cytokines. HEK-Blue™ IL1β cells are specifically engineered to selectively respond to IL1β, and they feature the secreted embryonic alkaline phosphatase (SEAP) reporter gene under the control of an NF-κB-inducible promoter. […] A target/receptor-specificity of the Ilantafin effect was verified employing HEK-Blue™ IL6 cells.

[2] = test system: STAT signalling induced by IL6, HEK-Blue IL6 cells; test: Target specificity, HEK-Blue IL6 cells; assay type: cell-based
Description: as §1

[3] = test system: collagen-induced arthritis (CIA); test: Collagen-induced arthritis in rats, treatment from day 15 (Example 7); assay type: in vivo, rat; details: 3.3 and 10 mg/kg s.c. daily from day 15
Description: Rheumatoid arthritis is a chronic, inflammatory, systemic autoimmune disease that affects about 1% of the general population in Western countries. Collagen-induced arthritis (CIA) in rats is a widely employed animal model for the screening of anti-inflammatory compounds. Collagen bovine, type II (CII, Cat.no.20021, Lot 090209, Chondrex, USA), Complete Freund's Adjuvant, containing 0.1% of Mycobacterium tuberculosis (CFA, Cat.no. F5581, Lot 049K8700, Sigma-Aldrich), Incomplete Freund's Adjuvant (IFA, Cat.no. F5506, Lot 058K8702, Sigma). PBS (Panum Institute, Copenhagen University). Isofluran (Baxter). Animals were immunized twice: on day 0 (CII+CFA) and on day 10 (CII+IFA, booster). On day 15 the mean clinical score reached a value of 5.0 and all animals were divided into 3 groups so that the severity of disease (mean clinical score) in all groups was almost equal. The peptide (two doses, 3.3 and 10 mg/kg) was administered subcutaneously daily starting at day 15. The clinical evaluation of the arthritis severity was assessed using the following grading system: O— no redness or swelling in foot and palm; 1—slight swelling or redness in metatarsophalangeal joint and ankle joint foot or palm; 2—progressed swelling/inflammation and redness from ankle to mid foot or in entire palm; 3—swelling/inflammation of entire foot except toes; 4—swelling and inflammation of entire foot including toes.

[4] = test system: cerebellar granule neurons; test: Survival assay, cerebellar granule neurons, low-potassium apoptosis; assay type: cell-based, rat; details: 5 mM KCl
Method: Survival assay: Primary cultures of CGN were plated at a density of 100,000 cells/cm2 on poly-L-lysine coated 8-well permanox slides in Neurobasal-A medium (Gibco BRL) supplemented with 2% (v/v) B27, 0.5% (v/v) glutamax, 100 units/mL penicillin, 100 µg/mL streptomycin and KCl, making the final concentration of KCl in the medium 40 mM. 24 hours after plating, cytosine-b-D-arabinofuranoside (Ara-C; Sigma-Aldrich) was added to a final concentration of 10 μM to avoid proliferation of glial cells, after which the neurons were allowed to differentiate for a further 6 days at 37° C. Apoptotic cell death was induced by washing twice and changing the medium to Basal Medium Eagle (BME; Gibco BRL) supplemented with 1% (v/v) glutamine, 100 U/mL penicillin and 100 µg/mL streptomycin, 3.5 g D-glucose/L and 1% (v/v) sodium pyruvate (Gibco BRL) together with various concentrations of peptide. Thereby the concentration of potassium in the cultures was reduced to 5 mM KCl (Ditlevsen et al., 2003). Two days after induction of apoptosis, the cells were fixed with 4% (v/v) formaldehyde and stained with Hoechst 33258 as described for the survival assay employing hippocampal neurons.

SGRKSSKMQA [Ilantafin] was tested, and the “inhibition of NF-κB activation induced by IL1β” value [1] was “inhibits activation of macrophages”, the “effect on STAT signalling induced by IL6” value [2] was “does not inhibit signaling induced by IL6” and the “clinical manifestations (clinical score) of CIA” value [3] was “abrogates an increase in clinical manifestations of CIA in rats”. The “survival effect compared with IGF-1” value [4] was “comparable with the effect of the neuronal survival factor IGF-1” and the “neuronal survival / cell death (apoptosis) induced by lowering potassium” value ([4]; 2 days) was “reduces neuronal cell death (apoptosis)”.
